Source: US20110245105A1, “Methods and Kits for Direct Detection and Susceptibility Profiling of Beta-Lactam Resistant Bacteria” (YISSUM RESEARCH DEVELOPMENT COMPANY OF THE HEBREW …, priority 2008, published 2011)

Key:
Citrobacter freundii = experiment: modular antibiotic resistance detection kit on urine sample pellets; format: cell-based; conditions: profile r23
Procedure: (§1) A modular antibiotic resistance detection kit offers more flexibility in testing different resistance profiles. In the modular detection kit exemplified here, the ART strip is replaced by filter paper segments glued to a slide, each segment impregnated with a single antibiotic.
(§2) Specifically, pathogen samples were tested using filter papers impregnated with the following beta-lactam antibiotics: ampicillin [Amp], augmentin (a combination of amoxicillin and clavulanic acid) [AMC], clavulanic acid (Reduced Resistance test) [RR], ceftazidime [Caz] and either imipenem or meropenem [CPM]. The impregnation details of the fragments were as in the previous Examples.
(§3) Filter paper (Whatman no. 3] strips impregnated with Assay Reagent solution were used as “indicator strips”. An indicator strip was attached to the plain top slide as shown in FIG. 2. Aliquots of the pellets of the urine samples tested were placed on each of the segments. The test was started by placing the activated indicator-strip-slide, on the modular antibiotic slide. The scan results obtained after 5-10 min at 38° C. are illustrated schematically in FIG. 2 where all segments, except for the negative (no antibiotic) control, show decolorization indicating resistance to each antibiotic in that array.
(§4) Samples resistant to ceftazidime but affected by clavulanic acid were assumed to contain extended spectrum beta lactamases (ESBLs). The ‘Confirmed’ detections column summarizes the number of CLP-validated results out of the total findings recorded.

E. coli [1] = experiment: as above; format: cell-based; conditions: E. coli, profile r12
Procedure: as §1, §2, §3, §4

K. pneumoniae [2] = experiment: as above; format: cell-based; conditions: K. pneumoniae, profile r20
Procedure: as §1, §2, §3, §4

[3] = tested on: carbapenem-resistant Enterobacteriaceae; experiment: modular kit for detection of CRE in urine sample; format: cell-based; conditions: CRE-containing urine sample; as part of augmentin
Procedure: The kit constructed as a twin-slide [as illustrated by FIG. 1] carries an “OCTET” strip impregnated [as in Example 1] with an array of eight beta-lactam antibiotics and 1 non-beta-lactam control [S].
To illustrate the life-saving potential of the proposed technology which eliminates delays in diagnosis of carbapenem-resistant members of the Enterobacteriaceae family (CRE), a CRE sample was analyzed using the invention's modular kit, containing ampicillin, ceftazidime, augmentin, cefotaxime, imipenem, cefuroxime, meropenem and ceftriaxone as beta-lactamase substrates and a non-beta-lactam antibiotic, served as a negative control.
Filter paper segments were glued to a slide, each segment impregnated with a single antibiotic of the abovementioned antibiotics and streaked with carbapenem-resistant Enterobacteriaceae-containing urine sample pellets, prepared as described in Examples 1 to 3. The slide was contacted with indicator strips attached to a slide.

E. coli [4] = experiment: ART strip (Antibiotics Resistance Test), iodometric detection of beta-lactam hydrolysis by un-cultured urine sample pellets; format: cell-based
Procedure: (§5) Filter paper (Whatman no. 3) strips impregnated with 50 mM potassium iodide and 10 mM iodine in 0.75% aqueous starch solution were divided into 6 test areas. Appropriate antibiotic substrates were prepared at a final concentration of 20 mg/mL. Each test area was impregnated with 30 μL of the appropriate solution. The strips were then dried in a lyophilizer and stored with a desiccant at 4° C.
(§6) One mL urine samples were spun 2 minutes at 3000 RPM in room temperature. Supernatants were removed and aliquots of the resulting pellets were streaked on standard slides.
(§7) The product of the enzymatic degradation of a beta-lactam antibiotic removes the iodine from the ART strip and causes local decolorization in that strip. Typically, a detection kit consists of two slides, as illustrated in FIG. 2. The bottom slide is streaked with the sample to be tested. The top slide (lid) carries the ART strip which is activated when each test area on the strip receives 25 μL of the activator solution consisting of 40 mg gelatin in 100 mL phosphate buffer pH 6.5. The test starts when the top slide carrying the freshly activated ART strip contacts the bottom slide carrying the sample. It may be carried out at ambient temperatures but will be accelerated by warming-up to 41° C. […] Result is confirmed if no decolorization took place in the absence of the bacteria (the background of that test area) or in the absence of the antibiotic (as in Test Area 2 in FIG. 1).
(§8) One mL urine sample pellets were collected as described in Example 1 and each streaked on a slide. The strip of the invention (termed ART for Antibiotics Resistance Test) was used to test for beta-lactamase and its ability to degrade Ceftazidime [Caz], Ceftriaxone [Cro], Cefuroxime [Cxm] and Ampicillin [Amp]. The strip, containing iodine and starch and divided to areas containing each of the abovementioned antibiotics, and attached to a plain slide, was activated as shown above, and placed on the streaked slide. After 5-15 minutes at 33° C.-38° C. the slide was scanned and recorded.

Acinetobacter sp. = experiment: ART strip test on urine sample pellets; format: cell-based; conditions: 1 sample (r29)
Procedure: as §5, §6, §7, §8

Citr. koseri = experiment: ART strip test on urine sample pellets; format: cell-based; conditions: 2 samples (r25)
Procedure: as §5, §6, §7, §8

E. faecalis = experiment: ART strip test on urine sample pellets; format: cell-based; conditions: 4 samples (r27)
Procedure: as §5, §6, §7, §8

K. oxytoca [5] = experiment: ART strip test on urine sample pellets; format: cell-based
Procedure: as §5, §6, §7, §8

K. pneumoniae [6] = experiment: ART strip test on urine sample pellets; format: cell-based
Procedure: as §5, §6, §7, §8

Morg. morganii = experiment: ART strip test on urine sample pellets; format: cell-based
Procedure: as §5, §6, §7, §8

Prot. mirabilis = experiment: ART strip test on urine sample pellets; format: cell-based
Procedure: as §5, §6, §7, §8

Staphylococcus sp. = experiment: ART strip test on urine sample pellets; format: cell-based
Procedure: as §5, §6, §7, §8

Str. agalactiae = experiment: ART strip test on urine sample pellets; format: cell-based; conditions: 3 samples (r34)
Procedure: as §5, §6, §7, §8

K. oxytoca [7] = experiment: conventional lab procedures [CLP], resistance of bacterial isolates; format: cell-based; conditions: 1 sample (r15)
Text: (§9) The same specimens were examined using conventional lab procedures [CLP] that determined the identity of the bacterial isolates and their resistance to the above beta-lactams.

K. pneumoniae [8] = experiment: as above; format: cell-based; conditions: 1 sample (r12)
Text: as §9

carbapenemase = experiment: detection of carbapenemase activity in clinical urine samples; format: biochemical; conditions: urine pellet streak; 12 min at room temperature; 5.0-30 mg/mL substrate
Procedure: Activated ART strip impregnated with 30 μL of an aqueous solution of 30, […], 20, 15, 10 and 5.0 mg/mL imipenem (Ipm) or ertapenem (Etp) in positions 1, 2, 3, 4 and 5 on the strip, respectively, was placed in contact with a slide streaked with a urine pellet sample (Ipm+Sam. or Etp+Sam.), or an unstreaked slide (Ipm Cont. or Etp Cont.), […] reaction to appear. Abbreviations: Cont. (control), Etp. (ertapenem), Ipm. (imipenem), sam. (sample).
The product of the enzymatic degradation of a beta-lactam antibiotic removes the iodine from the ART strip and causes local decolorization in that strip. Typically, a detection kit consists of two slides, as illustrated in FIG. 2. The bottom slide is streaked with the sample to be tested. The top slide (lid) carries the ART strip which is activated when each test area on the strip receives 25 μL of the activator solution consisting of 40 mg gelatin in 100 mL phosphate buffer pH 6.5. The test starts when the top slide carrying the freshly activated ART strip contacts the bottom slide carrying the sample. […]
Urine samples were concentrated by a two minute centrifugation step at 3000 RPM and the resulting pellet was streaked on standard slides. […] As shown by the figure, the carbapenemase activity is easily detected using this method, even in samples containing low concentrations of antibiotic substrates.

[9] = 28 samples (r6), 5-15 minutes at 33° C.-38° C.

Row | Compound | resistance profile predicted by ART (E. coli [4]; 3 samples (r8), MDR) | resistance profile predicted by ART (E. coli [4]; 12 samples (r7)) | resistance profile predicted by ART (E. coli [4]; [9]) | resistance profile predicted by ART (Acinetobacter sp.) | resistance profile predicted by ART (Citr. koseri) | resistance profile predicted by ART (E. faecalis) | resistance profile predicted by ART (K. oxytoca [5]; 1 sample (r15)) | resistance profile predicted by ART (K. oxytoca [5]; 3 samples (r14)) | resistance profile predicted by ART (K. pneumoniae [6]; 1 sample (r12)) | resistance profile predicted by ART (K. pneumoniae [6]; 8 samples (r11)) | resistance profile predicted by ART (K. pneumoniae [6]; 11 samples (r10), MDR) | resistance profile predicted by ART (Morg. morganii; 1 sample (r22)) | resistance profile predicted by ART (Morg. morganii; 1 sample (r23)) | resistance profile predicted by ART (Prot. mirabilis; 1 sample (r18)) | resistance profile predicted by ART (Prot. mirabilis; 1 sample (r19)) | resistance profile predicted by ART (Prot. mirabilis; 1 sample (r20)) | resistance profile predicted by ART (Prot. mirabilis; 6 samples (r17)) | resistance profile predicted by ART (Staphylococcus sp.; 1 sample (r31)) | resistance profile predicted by ART (Staphylococcus sp.; 1 sample (r32)) | resistance profile predicted by ART (Str. agalactiae) | other results
1 | O=C(O)[C@H]1/C(=C/CO)O[C@@H]2CC(=O)N21 [RR, clavulanic acid] | – | – | – | – | – | – | – | – | – | – | – | – | – | – | – | – | – | – | – | – | Effect of clavulanic acid (Reduced Resistance) (Citrobacter freundii): N; Effect of clavulanic acid (Reduced Resistance) (E. coli [1]): N; Effect of clavulanic acid (Reduced Resistance) (K. pneumoniae [2]): N; protection from hydrolysis [3]: no protection from hydrolysis
2 | CO/N=C(\C(=O)N[C@@H]1C(=O)N2C(C(=O)O)=C(CSc3nc(=O)c(=O)[nH]n3C)CS[C@H]12)c1csc(N)n1 [Cro, Ceftriaxone] | R | S | S | S | S | S[nd] | S | S | S | S | R | S | R | S | R | S | S | S | S | S[nd] | CLP result differing from ART (in brackets) (K. oxytoca [7]): R; CLP result differing from ART (in brackets) (K. pneumoniae [8]): R
3 | C[C@@H](O)[C@H]1C(=O)N2C(C(=O)O)=C(S[C@@H]3CN[C@H](C(=O)Nc4cccc(C(=O)O)c4)C3)[C@H](C)[C@H]12 [Ert, ertapenem] | – | – | – | – | – | – | – | – | – | – | – | – | – | – | – | – | – | – | – | – | hydrolysis by carbapenemase in the sample (decolorization of strip) (carbapenemase): hydrolyzing
4 | CO/N=C(\C(=O)N[C@@H]1C(=O)N2C(C(=O)O)=C(COC(N)=O)CS[C@H]12)c1ccco1 [Cxm, Cefuroxime] | R | S | S | S | S | S[nd] | R | S | R | S | R | S | R | R | R | R | S | S | S | S[nd] | –
